# Laboratory results: patent US10266495B2, “Phenyl quinolinone derivatives as mutant-isocitrate dehydrogenase inhibitors” (FORMA TM2, Inc., priority 2014, dated 2019)
# Legend:
# [1] = target: IDH1-R132H recombinant protein (Homo sapiens, UniProt O75874, R132H); assay: IDH1-R132H enzymatic assay (NADPH consumption, diaphorase/resazurin readout); format: biochemical; settings: read-out: Enzyme IDH1 R132H IC50 Range
# Summary of the method: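 Compound was preincubated 15 min at 25 °C with recombinant IDH1-R132H (30 nM) or IDH1-R132C (10 nM) enzyme solution in 50 mM Tris pH 7.5, 150 mM NaCl, 5 mM MgCl2, 0.1% BSA and 0.01% Triton X-100. A solution of 2 mM α-ketoglutarate and 20 μM NADPH was then added for 45 min at 25 °C. Remaining NADPH was read by diaphorase/resazurin, and IC50 came from a four-parameter logistic fit of NADPH-consumption inhibition.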
# [2] = target: IDH1-R132C recombinant protein (Homo sapiens, UniProt O75874, R132C); assay: IDH1-R132C enzymatic assay (NADPH consumption, diaphorase/resazurin readout); format: biochemical; settings: read-out: Enzyme IDH1 R132C IC50 Range
# IDH1-R132C recombinant protein, sequence (O75874 whole entry R132C): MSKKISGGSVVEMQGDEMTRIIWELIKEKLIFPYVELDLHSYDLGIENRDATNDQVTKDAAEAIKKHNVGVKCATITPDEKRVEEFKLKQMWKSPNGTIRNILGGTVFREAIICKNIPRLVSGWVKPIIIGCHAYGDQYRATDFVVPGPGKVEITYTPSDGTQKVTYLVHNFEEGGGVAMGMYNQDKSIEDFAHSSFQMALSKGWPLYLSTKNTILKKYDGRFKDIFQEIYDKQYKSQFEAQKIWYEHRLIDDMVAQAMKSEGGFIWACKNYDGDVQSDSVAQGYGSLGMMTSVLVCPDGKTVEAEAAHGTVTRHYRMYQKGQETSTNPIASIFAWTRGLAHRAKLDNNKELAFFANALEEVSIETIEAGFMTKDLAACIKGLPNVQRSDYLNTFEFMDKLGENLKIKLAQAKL
# Protocol: Assays were performed in a 384-well black plate. An aliquot of 250 nL of compound was incubated with 10 μL of 30 nM IDH1-R132H or 10 nM IDH1-R132C recombinant protein in assay buffer (50 mM Tris pH=7.5, 150 mM NaCl, 5 mM MgCl2, 0.1% (w/v) Bovine Serum Albumin, and 0.01% Triton X-100) in each well at 25° C. for 15 minutes. After the plate was centrifuged briefly, an aliquot of 10 μL of 2 mM α-ketoglutarate and 20 μM NADPH solution prepared in assay buffer was then added to each well and the reaction was maintained at 25° C. for 45 minutes. An aliquot of 10 μL of diaphorase solution (0.15 U/mL diaphorase and 30 μM Resazurin in assay buffer) was added to each well. […] The IC50 of a given compound was calculated by fitting the dose response curve of inhibition of NADPH consumption at a given concentration with the four parameter logistic equation.
# IDH1-R132H recombinant protein, sequence (O75874 whole entry R132H): as the sequence (O75874 whole entry R132C) above, with C132H counted along it
IC50 [1] [nM],IC50 [2] [nM],Compound
100 to 1000,> 1000,"N#Cc1ccc(NCc2cc3cc(Cl)ccc3[nH]c2=O)cc1O [Compound I-8, 4-{[(6-chloro-2-oxo-1,2-dihydroquinolin-3-yl)methyl]amino}-2-hydroxybenzonitrile]"
100 to 1000,> 1000,"N#Cc1ccc(NCc2cc3cc(Cl)ccc3[nH]c2=O)cc1OC(F)(F)F [Compound I-10, 4-{[(6-chloro-2-oxo-1,2-dihydroquinolin-3-yl)methyl]amino}-2-(trifluoromethoxy)benzonitrile]"
100 to 1000,100 to 1000,"COc1cc2[nH]c(=O)c(CNc3ccc(C#N)c(OC)c3)cc2cc1Cl [Compound I-21, 4-{[(6-chloro-7-methoxy-2-oxo-1,2-dihydroquinolin-3-yl)methyl]amino}-2-methoxybenzonitrile]"
10 to 100,> 1000,"COc1cc(NCc2cc3cc(Cl)c(OCCn4ccnc4)cc3[nH]c2=O)ccc1C#N [Compound I-89, 4-[({6-chloro-7-[2-(1H-imidazol-1-yl)ethoxy]-2-oxo-1,2-dihydroquinolin-3-yl}methyl)amino]-2-methoxybenzonitrile]"
100 to 1000,> 1000,"COc1cc(NCc2cc3cc(C)ccc3[nH]c2=O)ccc1-n1cnnn1 [Compound I-16, 3-({[3-methoxy-4-(1H-1,2,3,4-tetrazol-1-yl)phenyl]amino}methyl)-6-methyl-1,2-dihydroquinolin-2-one]"
10 to 100,> 1000,"COc1cc(NCc2cc3cc(Cl)c(OCCN4CCCC4=O)cc3[nH]c2=O)ccc1C#N [Compound I-86, 4-[({6-chloro-2-oxo-7-[2-(2-oxopyrrolidin-1-yl)ethoxy]-1,2-dihydroquinolin-3-yl}methyl)amino]-2-methoxybenzonitrile]"
10 to 100,> 1000,"COc1cc(NCc2cc3cc(Cl)c(OCCc4ccccn4)cc3[nH]c2=O)ccc1C#N [Compound I-80, 4-[({6-chloro-2-oxo-7-[2-(pyridin-2-yl)ethoxy]-1,2-dihydroquinolin-3-yl}methyl)amino]-2-methoxybenzonitrile]"
10 to 100,> 1000,"COc1cc(NCc2cc3cc(C(F)(F)F)ccc3[nH]c2=O)ccc1C#N [Compound I-25, 2-methoxy-4-({[2-oxo-6-(trifluoromethyl)-1,2-dihydroquinolin-3-yl]methyl}amino)benzonitrile]"
100 to 1000,> 1000,"COc1cc(NCc2cc3cc(Cl)cc(OCCN4CCOCC4)c3[nH]c2=O)ccc1C#N [Compound I-99, 4-[({6-chloro-8-[2-(morpholin-4-yl)ethoxy]-2-oxo-1,2-dihydroquinolin-3-yl}methyl)amino]-2-methoxybenzonitrile]"
100 to 1000,> 1000,"COc1cc(NCc2cc3cc(Cl)c(OCCN4CCS(=O)(=O)CC4)cc3[nH]c2=O)ccc1C#N [Compound I-91, 4-[({6-chloro-7-[2-(1,1-dioxo-1λ^6,4-thiomorpholin-4-yl)ethoxy]-2-oxo-1,2-dihydroquinolin-3-yl}methyl)amino]-2-methoxybenzonitrile]"
10 to 100,> 1000,"COc1cc(NCc2cc3cc(Cl)c(OCC(=O)N4CCOCC4)cc3[nH]c2=O)ccc1C#N [Compound I-69, 4-[({6-chloro-7-[2-(morpholin-4-yl)-2-oxoethoxy]-2-oxo-1,2-dihydroquinolin-3-yl}methyl)amino]-2-methoxybenzonitrile]"
10 to 100,10 to 100,"COc1cc(NC(C)c2cc3cc(Cl)ccc3[nH]c2=O)ccc1C#N (racemic) [Compound I-1, 4-{[1-(6-chloro-2-oxo-1,2-dihydroquinolin-3-yl)ethyl]amino}-2-methoxybenzonitrile]"
10 to 100,> 1000,"COc1cc(NCc2cc3cc(Cl)c(OCc4cnccn4)cc3[nH]c2=O)ccc1C#N [Compound I-76, 4-({[6-chloro-2-oxo-7-(pyrazin-2-ylmethoxy)-1,2-dihydroquinolin-3-yl]methyl}amino)-2-methoxybenzonitrile]"
